Source: US20220169654A1, “New Organic Compounds” (Servier Pharmaceuticals LLC, priority 2020, published 2022)
pIC50: −log10 of the molar value.

Columns and labels:
[1] = system: SAM in HCT116 human colon carcinoma cell line with MTAP gene deleted (MTAP −/−); experiment: Cellular assay of target engagement (SAM), LC-MS/MS, 72 hrs; format: cell-based; details: HCT-116, IC50 bin with Max Inh., read-out: Cell 72 h SAM Inhibition (MTAP −/−)
Outline: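 MTAP-deleted HCT116 cells plated 24 h, then given 10-point 3-fold dilutions for 72 hrs at 37° C. Intracellular SAM extracted in cold 80% methanol with 1M acetic acid and d3-SAM standard, quantified by LC-MS/MS (MRM m/z 399.2→250.1); IC50 derived.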

MAT2A homodimer = molecular target: T1, MAT2A homodimer (Homo sapiens, UniProt P31153); experiment: MAT2A inhibition (biochemical, liberated phosphate, PiColorLock Gold); details: recombinant MAT2A homodimer; IC50 bin with Max Inh.; read-out: Enzyme Inhibition Bin
T1 construct: inferred from Ni sepharose purification with imidazole elution; made in house; host or cells: Sf9 insect cells, baculovirus (Bac to Bac, pFASTBAC1)
T1 sequence (P31153 whole entry): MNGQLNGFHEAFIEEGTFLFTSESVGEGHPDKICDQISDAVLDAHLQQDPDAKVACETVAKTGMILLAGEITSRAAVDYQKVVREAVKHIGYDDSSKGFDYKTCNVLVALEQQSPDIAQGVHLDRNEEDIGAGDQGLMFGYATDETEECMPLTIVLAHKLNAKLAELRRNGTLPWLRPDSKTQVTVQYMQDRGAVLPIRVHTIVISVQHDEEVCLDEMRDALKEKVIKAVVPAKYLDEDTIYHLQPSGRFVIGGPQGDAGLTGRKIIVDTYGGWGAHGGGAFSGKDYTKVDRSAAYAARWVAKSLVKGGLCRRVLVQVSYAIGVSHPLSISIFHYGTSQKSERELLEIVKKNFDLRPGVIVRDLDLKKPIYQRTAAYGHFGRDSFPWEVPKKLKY
Outline: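 Baculovirus/Sf9-expressed, Ni-purified MAT2A (4 μg/mL) preincubated with compound 60 min at 25 °C in Tris pH 8.0/KCl/MgCl2 buffer. Reaction started with 500 μM ATP and 400 μM L-methionine (substrate-mix concentrations), run 60 min at 25 °C. Phosphate measured colorimetrically against a phosphate standard curve to give IC50.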

HCT116 MTAP−/− = experiment: Inhibition of cellular proliferation, 4 days, Cell Titer Glo, HCT116 MTAP−/−; format: cell-based; details: Homo sapiens, HCT-116, 96 h, IC50 bin with Max Inh., read-out: 4 Day Relative Growth Inhibition (MTAP −/−)
Outline: (§1)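 Isogenic HCT116 pair differing only in MTAP status, plated 24 h before treatment with 10-point 3-fold dilutions; 4 days at 37° C./5% CO2. Cell Titer Glo luminescence, blank-subtracted and normalised to 0.2% DMSO control, gives percentage proliferation vs log molar concentration for IC50.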

HCT116 MTAP+/+ = experiment: Inhibition of cellular proliferation, 4 days, Cell Titer Glo, HCT116 MTAP+/+; format: cell-based; details: Homo sapiens, HCT-116, 96 h, IC50 bin with Max Inh., read-out: 4 Day Relative Growth Inhibition (MTAP +/+)
Outline: as §1

Row | Compound | pIC50 [1] | pIC50 (MAT2A homodimer) | pIC50 (HCT116 MTAP−/−) | pIC50 (HCT116 MTAP+/+)
1 | Cn1cc2cc(-n3nc4c(c(-c5ccc(C6CC6)cc5)c3=O)n(CC3CC3)c(=O)n4C)ccc2n1 [Example 200, 5-(cyclopropylmethyl)-4-(4-cyclopropylphenyl)-7-methyl-2-(2-methyl-2H-indazol-5-yl)-2,7-dihydro-3H-imidazo[4,5-c]pyridazine-3,6(5H)-dione] | > 7.00 | > 7.00 | > 7.00 | 6.00 to 7.00
2 | Cn1cc2cc(-n3nc4c(Br)cn(CC5CC5)c4c(-c4ccc(C5CC5)nc4)c3=O)ccc2n1 [Example 238, 7-bromo-5-(cyclopropylmethyl)-4-(6-cyclopropylpyridin-3-yl)-2-(2-methyl-2H-indazol-5-yl)-2,5-dihydro-3H-pyrrolo[3,2-c]pyridazin-3-one] | > 7.00 | > 7.00 | > 7.00 | < 6.00
3 | COc1ccc(-n2nc3ccn(CC4CC4)c3c(-c3ccc(OC(F)F)cc3)c2=O)cc1 [Example 229, 5-(cyclopropylmethyl)-4-(4-(difluoromethoxy)phenyl)-2-(4-methoxyphenyl)-2,5-dihydro-3H-pyrrolo[3,2-c]pyridazin-3-one] | > 7.00 | > 7.00 | > 7.00 | 6.00 to 7.00
4 | Cc1ccc(-c2c(=O)n(-c3ccc4nn(C)cc4c3)nc3c(C)nn(CC4CC4)c23)cn1 [Example 217, 1-(cyclopropylmethyl)-3-methyl-5-(2-methyl-2H-indazol-5-yl)-7-(6-methylpyridin-3-yl)-1,5-dihydro-6H-pyrazolo[4,3-c]pyridazin-6-one] | > 7.00 | > 7.00 | > 7.00 | < 6.00
5 | Cn1cc2cc(-n3nc4ccn(CC5CC5)c4c(-c4ccc(OC(F)F)cc4)c3=O)ccc2n1 [Example 101, 5-(cyclopropylmethyl)-4-(4-(difluoromethoxy)phenyl)-2-(2-methyl-2H-indazol-5-yl)-2,5-dihydro-3H-pyrrolo[3,2-c]pyridazin-3-one] | > 7.00 | > 7.00 | > 7.00 | < 6.00
6 | Cn1cc2cc(-n3nc4c(C#N)cn(CC5CC5)c4c(-c4ccc(OC(F)F)nc4)c3=O)ccc2n1 [Example 114, 5-(cyclopropylmethyl)-4-(6-(difluoromethoxy)pyridin-3-yl)-2-(2-methyl-2H-indazol-5-yl)-3-oxo-3,5-dihydro-2H-pyrrolo[3,2-c]pyridazine-7-carbonitrile] | > 7.00 | > 7.00 | > 7.00 | < 6.00
7 | Cc1nc2ccc(-n3nc4c(C#N)cn(CC5CC5)c4c(-c4ccc(C(F)F)nc4)c3=O)cc2n1C [Example 147, 5-(cyclopropylmethyl)-4-(6-(difluoromethyl)pyridin-3-yl)-2-(1,2-dimethyl-1H-benzo[d]imidazol-6-yl)-3-oxo-3,5-dihydro-2H-pyrrolo[3,2-c]pyridazine-7-carbonitrile] | > 7.00 | > 7.00 | > 7.00 | 6.00 to 7.00
8 | Cn1cc2cc(-n3nc4c(C#N)cn(C[C@@H]5CC5(F)F)c4c(-c4ccc(C5CC5)nc4)c3=O)ccc2n1 [Example 268, (S)-4-(6-cyclopropylpyridin-3-yl)-5-((2,2-difluorocyclopropyl)methyl)-2-(2-methyl-2H-indazol-5-yl)-3-oxo-3,5-dihydro-2H-pyrrolo[3,2-c]pyridazine-7-carbonitrile] | > 7.00 | > 7.00 | > 7.00 | < 6.00
9 | CN1CCOc2ccc(-n3nc4ccn(CC5CC5)c4c(-c4ccc(OC(F)F)cc4)c3=O)cc21 [Example 227, 5-(cyclopropylmethyl)-4-(4-(difluoromethoxy)phenyl)-2-(4-methyl-3,4-dihydro-2H-benzo[b][1,4]oxazin-6-yl)-2,5-dihydro-3H-pyrrolo[3,2-c]pyridazin-3-one] | > 7.00 | > 7.00 | > 7.00 | 6.00 to 7.00
10 | CNC(=O)c1cn(CC2CC2)c2c(-c3ccc(OC(F)F)cc3)c(=O)n(-c3ccc4nn(C)cc4c3)nc12 [Example 169, 5-(cyclopropylmethyl)-4-(4-(difluoromethoxy)phenyl)-N-methyl-2-(2-methyl-2H-indazol-5-yl)-3-oxo-3,5-dihydro-2H-pyrrolo[3,2-c]pyridazine-7-carboxamide] | > 7.00 | > 7.00 | > 7.00 | 6.00 to 7.00
11 | Cn1cc2cc(-n3nc4ncn(CC5CC5)c4c(-c4ccc(OC(F)F)cc4)c3=O)ccc2n1 [Example 186, 5-(cyclopropylmethyl)-4-[4-(difluoromethoxy)phenyl]-2-(2-methyl-2H-indazol-5-yl)-2H,3H,5H-imidazo[4,5-c]pyridazin-3-one] | > 7.00 | > 7.00 | > 7.00 | 6.00 to 7.00
12 | CCc1ccc(-c2c(=O)n(-c3ccc4nn(C)cc4c3)nc3c(C#N)cn(CC4CC4)c23)cn1 [Example 136, 5-(cyclopropylmethyl)-4-(6-ethylpyridin-3-yl)-2-(2-methyl-2H-indazol-5-yl)-3-oxo-3,5-dihydro-2H-pyrrolo[3,2-c]pyridazine-7-carbonitrile] | > 7.00 | > 7.00 | > 7.00 | 6.00 to 7.00
13 | Cn1cc2cc(-n3nc4c(C#N)cn(CC5CC5)c4c(-c4ccc(C5CC5)nc4)c3=O)ccc2n1 [Example 107, 5-(cyclopropylmethyl)-4-(6-cyclopropylpyridin-3-yl)-2-(2-methyl-2H-indazol-5-yl)-3-oxo-3,5-dihydro-2H-pyrrolo[3,2-c]pyridazine-7-carbonitrile] | > 7.00 | > 7.00 | > 7.00 | 6.00 to 7.00
14 | Cn1cc2cc(-n3nc4c(C#N)cn(CC5CC5)c4c(-c4ccc(C5(C)CC5)nc4)c3=O)ccc2n1 [Example 254, 5-(cyclopropylmethyl)-2-(2-methyl-2H-indazol-5-yl)-4-[6-(1-methylcyclopropyl)pyridin-3-yl]-3-oxo-2H,3H,5H-pyrrolo[3,2-c]pyridazine-7-carbonitrile] | 6.00 to 7.00 | > 7.00 | 6.00 to 7.00 | 6.00 to 7.00
15 | Cn1cc2cc(-n3nc4ncn(CC5CC5)c4c(-c4ccc(Cl)cc4)c3=O)ccc2n1 [Example 188, 4-(4-chlorophenyl)-5-(cyclopropylmethyl)-2-(2-methyl-2H-indazol-5-yl)-2,5-dihydro-3H-imidazo[4,5-c]pyridazin-3-one] | > 7.00 | > 7.00 | > 7.00 | 6.00 to 7.00
16 | CC(C)Cn1ccc2nn(-c3ccc4nn(C)cc4c3)c(=O)c(-c3ccc(OC(F)F)cc3)c21 [Example 115, 4-(4-(difluoromethoxy)phenyl)-5-isobutyl-2-(2-methyl-2H-indazol-5-yl)-2,5-dihydro-3H-pyrrolo[3,2-c]pyridazin-3-one] | > 7.00 | > 7.00 | > 7.00 | < 6.00
17 | Cn1cc2cc(-n3nc4c(C#N)cn(CC5CC5)c4c(-c4ccc([C@H]5CC5(F)F)nc4)c3=O)ccc2n1 [Example 253, (R)-5-(cyclopropylmethyl)-4-(6-(2,2-difluorocyclopropyl)pyridin-3-yl)-2-(2-methyl-2H-indazol-5-yl)-3-oxo-3,5-dihydro-2H-pyrrolo[3,2-c]pyridazine-7-carbonitrile] | 6.00 to 7.00 | > 7.00 | > 7.00 | < 6.00
18 | COc1ccc(-c2c(=O)n(-c3ccc4nn(C)cc4c3)nc3c(C)nn(CC4CC4)c23)cc1 [Example 214, 1-(cyclopropylmethyl)-7-(4-methoxyphenyl)-3-methyl-5-(2-methyl-2H-indazol-5-yl)-1,5-dihydro-6H-pyrazolo[4,3-c]pyridazin-6-one] | > 7.00 | > 7.00 | > 7.00 | 6.00 to 7.00
19 | [2H]C([2H])([2H])Oc1ccc(-c2c(=O)n(-c3ccc4nn(C)cc4c3)nc3ncn(CC4CC4)c23)cc1 [Example 194, 5-(cyclopropylmethyl)-4-(4-(methoxy-d3)phenyl)-2-(2-methyl-2H-indazol-5-yl)-2,5-dihydro-3H-imidazo[4,5-c]pyridazin-3-one] | > 7.00 | > 7.00 | > 7.00 | 6.00 to 7.00
20 | Cn1cc2cc(-n3nc4c(S(N)(=O)=O)cn(CC5CC5)c4c(-c4ccc(C5CC5)nc4)c3=O)ccc2n1 [Example 185, 5-(cyclopropylmethyl)-4-(6-cyclopropylpyridin-3-yl)-2-(2-methyl-2H-indazol-5-yl)-3-oxo-3,5-dihydro-2H-pyrrolo[3,2-c]pyridazine-7-sulfonamide] | 6.00 to 7.00 | > 7.00 | 6.00 to 7.00 | < 6.00
21 | Cn1cc2cc(-n3nc4ccn(CC5CC5)c4c(-c4ccc(C(F)(F)F)nc4)c3=O)ccc2n1 [Example 118, 5-(cyclopropylmethyl)-2-(2-methyl-2H-indazol-5-yl)-4-(6-(trifluoromethyl)pyridin-3-yl)-2,5-dihydro-3H-pyrrolo[3,2-c]pyridazin-3-one] | > 7.00 | > 7.00 | > 7.00 | < 6.00
